Experiments:
[1] = Induction of anti-CD3/CD28 antibodies-stimulated human T cell activation at 0.3 uM assessed fold increase in IL-2 secretion measured by ELISA assay; format: functional, T cell line
[2] = Induction of activation of human CD56+ CD3- NK cells co-cultured with human K562 cells in 1:1 ratio and assessed as increase in IFN-gamma secretion at 2.5 uM measured by ELISA assay; format: functional, Natural killer cell
[3] = Induction of anti-CD3/CD28 antibodies-stimulated human CD8+ T cell activation at 10 uM assessed fold increase in CD69 expression measured by flow cytometry analysis; format: functional, T cell line
[4] = Induction of anti-CD3 antibodies-stimulated human CD4+ T cell activation at 10 uM assessed fold increase in CD69 expression measured by flow cytometry analysis; format: functional, T cell line; note: reference of the scale not given here
[5] = Induction of anti-CD3 antibodies-stimulated human exhausted T cell activation assessed fold increase in IFN-gamma secretion measured by ELISA assay; format: functional, T cell line; note: reference of the scale not given here
[6] = Induction of anti-CD3/CD28 antibodies-stimulated human anergic T cell activation at 0.37 uM assessed fold increase in IFN-gamma secretion measured by ELISA assay; format: functional, T cell line
[7] = Induction of anti-CD3 antibodies-stimulated human exhausted CD4+ T cell activation assessed fold increase in CTLA4 expression measured by flow cytometry analysis; format: functional, T cell line; note: reference of the scale not given here
[8] = Induction of anti-CD3 antibodies-stimulated human CD8+ T cell activation at 10 uM assessed fold increase in cell proliferation measured by flow cytometry analysis; format: functional, T cell line; note: reference of the scale not given here
[9] = Induction of anti-CD3/CD28 antibodies-stimulated human anergic T cell activation at 1.11 uM assessed fold increase in IFN-gamma secretion measured by ELISA assay; format: functional, T cell line
[10] = Induction of anti-CD3 antibodies-stimulated human T cell activation at 1 uM assessed fold increase in CD25 expression measured by ELISA assay; format: functional, T cell line; note: reference of the scale not given here
[11] = Induction of anti-CD3/CD28 antibodies-stimulated human CD4+ T cell activation at 1.11 uM assessed fold increase in CD69 expression measured by flow cytometry analysis; format: functional, T cell line
[12] = Induction of anti-CD3/CD28 antibodies-stimulated human CD4+ T cell activation at 10 uM assessed fold increase in cell proliferation measured by flow cytometry analysis; format: functional, T cell line
[13] = Induction of anti-CD3/CD28 antibodies-stimulated human T cell activation at 4 uM assessed fold increase in CD25 expression measured by ELISA assay; format: functional, T cell line
[14] = Induction of allogenic human T cell activation at 10 uM assessed fold increase in cell proliferation; format: functional, T cell line
[15] = Induction of activation of human CD56+ CD3- NK cells co-cultured with human K562 cells in 1:1 ratio and assessed as increase in TNF-alpha secretion at 10 uM measured by ELISA assay; format: functional, Natural killer cell
[16] = Induction of anti-CD3/CD28 antibodies-stimulated human CD8+ T cell activation at 1.11 uM assessed fold increase in cell proliferation measured by flow cytometry analysis; format: functional, T cell line
[17] = Induction of anti-CD3 antibodies-stimulated human T cell activation at 8 uM assessed fold increase in IL-2 secretion measured by ELISA assay; format: functional, T cell line; note: reference of the scale not given here
[18] = Induction of anti-CD3 antibodies-stimulated human CD4+ T cell activation at 1.11 uM assessed fold increase in CD69 expression measured by flow cytometry analysis; format: functional, T cell line; note: reference of the scale not given here
B cell = assay: Induction of anti-IgM-stimulated human CD20+ B cell activation at 10 to 1000 uM assessed as increase in CD69 expression measured as mean fluorescence intensity AUC by flow cytometry analysis; format: functional, cell-based; settings: dose 10-1000 µM
[19] = Induction of anti-CD3 antibodies-stimulated human exhausted T cell activation assessed fold increase in GM-CSF secretion measured by ELISA assay; format: functional, T cell line; note: reference of the scale not given here
[20] = Induction of activation of human CD56+ CD3- NK cells co-cultured with human K562 cells in 1:1 ratio and assessed as increase in IFN-gamma secretion at 10 uM measured by ELISA assay; format: functional, Natural killer cell
[21] = Induction of activation of human CD56+ CD3- NK cells co-cultured with human K562 cells in 1:1 ratio and assessed as increase in TNF-alpha secretion at 2.5 uM measured by ELISA assay; format: functional, Natural killer cell
[22] = Induction of activation of human CD56+ CD3- NK cells co-cultured with human K562 cells in 1:1 ratio and assessed as increase in TNF-alpha secretion at 0.625 uM measured by ELISA assay; format: functional, Natural killer cell
[23] = Induction of anti-CD3 antibodies-stimulated human CD8+ T cell activation at 1.11 uM assessed fold increase in cell proliferation measured by flow cytometry analysis; format: functional, T cell line; note: reference of the scale not given here
[24] = Induction of anti-CD3/CD28 antibodies-stimulated human CD8+ T cell activation at 10 uM assessed fold increase in cell proliferation measured by flow cytometry analysis; format: functional, T cell line
[25] = Induction of anti-CD3/CD28 antibodies-stimulated human T cell activation at 4 uM assessed fold increase in IL-2 secretion measured by ELISA assay; format: functional, T cell line
[26] = Induction of allogenic human T cell activation at 3 uM assessed fold increase in cell proliferation; format: functional, T cell line
[27] = Induction of anti-CD3 antibodies-stimulated human T cell activation at 1 uM assessed fold increase in IL-2 secretion measured by ELISA assay; format: functional, T cell line; note: reference of the scale not given here
[28] = Induction of anti-CD3/CD28 antibodies-stimulated human T cell activation at 1 uM assessed fold increase in CD25 expression measured by ELISA assay; format: functional, T cell line

## C[C@@H](Sc1nncn1C)c1cccc(NC(=O)c2cccc(C(F)(F)F)n2)c1
[1]
  fold change (FC): 1.01
[2]
  fold change (FC): 1.01
[3]
  fold change (FC): 1.201
[4]
  fold change (FC): 1.401
[5]
  fold change (FC): <=1.4
[6]
  fold change (FC): <=2.5
[7]
  fold change (FC): <=1.4
[8]
  fold change (FC): >4
[9]
  fold change (FC): <=2.5
[10]
  fold change (FC): <=0.6
[11]
  fold change (FC): 1.201
[12]
  fold change (FC): >4
[13]
  fold change (FC): 1.01
[14]
  fold change (FC): <=2
[15]
  fold change (FC): 1.01
[16]
  fold change (FC): 2.01
[17]
  fold change (FC): 0.051
[18]
  fold change (FC): >1.601
B cell
  AUC: < 0.5
[19]
  fold change (FC): <=1.4
[20]
  fold change (FC): 1.01
[21]
  fold change (FC): 1.01
[22]
  fold change (FC): 1.01
[23]
  fold change (FC): 3.01
[24]
  fold change (FC): >4
[25]
  fold change (FC): 1.01
[26]
  fold change (FC): <=2
[27]
  fold change (FC): 0.051
[28]
  fold change (FC): 1.01

— ChEMBL document CHEMBL5050844 (2019)
